Holding throughout (experiment): IP3 assay (inositol trisphosphate, 3H-myoinositol) in transiently transfected COS-7 cells
What all share (format): cell-based

One test concerns the target T1, hNK1R (Homo sapiens, UniProt P25103).
T1 construct: host or cells: COS-7
The settings on record: for EC50 / hNK1R, IP3 Efficacy: COS-7 cells; for EC50: 0.2% ovalbumin buffer; for hNK1R, IP3 Efficacy: figure legends: percent of 10^-6 M NKA. As for the experimental part:
(§1) Agonist-induced G-protein coupled receptor (GPCR) activation was measured by an Inositol-1,4,5-Trisphosphate [^3H] Radioreceptor Assay (IPs Assay). Assays were carried out using COS-7 cells transiently transfected by calcium phosphate transfection with a vector pcDNA3.1(+) encoding one of the indicated receptors (Genscript). Briefly, DNA mixed with CaCl2 (2 M) and TE-buffer (10 mM Tris-HCl, 1 mM EDTA, pH 7.5) was dropwise added to 2×HBS (50 mM HEPES, 280 mM NaCl, 1.5 mM NaH2PO4, pH 7.2) and incubated for 45 min at room temperature (22±2° C.). The mixture and a final concentration of 100 μM Chloroquine were added to the cells and left to incubate for 5 hours at 37° C. under standard cell culture conditions (10% CO2) before changing medium to fresh medium containing 5 μl/mL Myo-[2-^3H(N)]-inositol (labelling medium).
(§2) The IP3 assay takes advantage of the tachykinin receptors' ability to induce production of the inositol trisphosphate (IP3) second messenger upon agonist (ligand) binding on receptor expressing cells following an initial ^3H-inositol labelling period. In effect this means that production of the second messenger IP3 as a measure of receptor activity can be assessed by counting ^3H-activity.
(§3) Assay solutions used: Wash buffer (HBSS), Assay buffer (HBSS+10 mM LiCl and 0,2% w/v ovalbumin), Lysis buffer (10 mM formic acid), and SPA YSI beads (12.5 mg/ml in H2O). The assay was performed the day after transfection. Briefly, labelling medium was aspirated, and plates were washed ×1 in wash buffer before adding 100 μl assay buffer, pre-incubated for 30 min followed by 120 min incubation with agonist, both at 37° C. After incubation, plates were immediately placed on ice and the incubation medium was aspirated and 40 μl of 10 mM formic acid per well was added. Plates were incubated for at least 30 min on ice. 60 μl (1 mg/well) SPA YSI beads/well was pipetted into a solid white 96 wells plate and 35 μl of the lysis solution was transferred to the plate before covering plates with seal cover and shaking for 10 min. (max speed). Centrifuge plates and leave for 8 hours at room temperature before counting the plates in a MicroBeta plate counter (Perkin Elmer).

Another test deals with T2, hNK2R (Homo sapiens, UniProt P21452).
T2 construct: host or cells: COS-7
T2 sequence (P21452 1-398): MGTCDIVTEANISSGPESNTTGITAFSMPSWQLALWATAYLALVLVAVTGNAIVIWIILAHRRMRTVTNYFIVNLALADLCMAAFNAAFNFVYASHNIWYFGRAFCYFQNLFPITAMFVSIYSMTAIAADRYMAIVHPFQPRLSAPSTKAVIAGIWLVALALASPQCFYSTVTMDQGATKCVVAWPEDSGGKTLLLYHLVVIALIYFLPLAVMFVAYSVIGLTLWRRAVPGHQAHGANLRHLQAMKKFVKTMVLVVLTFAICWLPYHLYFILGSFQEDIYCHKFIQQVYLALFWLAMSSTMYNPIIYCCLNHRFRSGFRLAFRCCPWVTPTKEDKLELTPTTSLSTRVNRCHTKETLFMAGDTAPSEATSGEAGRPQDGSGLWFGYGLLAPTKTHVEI
As to conditions: for EC50 / hNK2R, IP3 Efficacy: COS-7 cells; for EC50: 0.2% ovalbumin buffer; for hNK2R, IP3 Efficacy: figure legends: percent of 10^-6 M NKA. The procedure:
as §1, §2, §3

Another test deals with T3, hNK3R (Homo sapiens, UniProt P29371).
T3 construct: host or cells: COS-7
T3 sequence (P29371 1-465): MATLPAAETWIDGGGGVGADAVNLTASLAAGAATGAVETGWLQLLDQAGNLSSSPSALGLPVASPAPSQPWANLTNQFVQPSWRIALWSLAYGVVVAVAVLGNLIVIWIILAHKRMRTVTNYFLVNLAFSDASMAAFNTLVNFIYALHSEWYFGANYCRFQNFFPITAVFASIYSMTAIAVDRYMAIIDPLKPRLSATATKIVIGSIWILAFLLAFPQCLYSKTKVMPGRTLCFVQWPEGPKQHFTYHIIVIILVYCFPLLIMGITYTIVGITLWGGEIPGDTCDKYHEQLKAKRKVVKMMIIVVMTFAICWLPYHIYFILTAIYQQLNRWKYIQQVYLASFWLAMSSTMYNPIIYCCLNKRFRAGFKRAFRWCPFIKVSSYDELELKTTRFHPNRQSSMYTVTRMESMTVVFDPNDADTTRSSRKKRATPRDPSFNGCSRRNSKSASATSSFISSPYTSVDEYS
The settings on record: for EC50 / hNK3, IP3 Efficacy: COS-7 cells; for EC50: 0.2% ovalbumin buffer, read-out: hNK3, IP3 EC50; for hNK3, IP3 Efficacy: figure legends: percent of 10^-6 M NKA. The procedure:
as §1, §2, §3

Numbered stars: 1 amine (or outer) side, 2 acyl side, 3 side chain; on linkers, the order of the positions; unused ones are H or OH. Square brackets hold non-standard residues; d marks the D form. Peptide text beside a SMILES is read from it. * marks the point of attachment. C20 diacid = O=C(O)CCCCCCCCCCCCCCCCCCC(=O)*; C18 diacid = O=C(O)CCCCCCCCCCCCCCCCC(=O)*; γGlu = O=C(O)[C@H](CCC(=O)[*:2])N[*:1]; Conj‑Neu‑C18DA = not defined here; NMeL = CN[C@@H](CC(C)C)C(=O)O; hSer = N[C@@H](CCO)C(=O)O; Nle = CCCC[C@H](N)C(=O)O; AEEA = NCCOCCOCC(=O)O

T1 sequence (P25103 whole entry): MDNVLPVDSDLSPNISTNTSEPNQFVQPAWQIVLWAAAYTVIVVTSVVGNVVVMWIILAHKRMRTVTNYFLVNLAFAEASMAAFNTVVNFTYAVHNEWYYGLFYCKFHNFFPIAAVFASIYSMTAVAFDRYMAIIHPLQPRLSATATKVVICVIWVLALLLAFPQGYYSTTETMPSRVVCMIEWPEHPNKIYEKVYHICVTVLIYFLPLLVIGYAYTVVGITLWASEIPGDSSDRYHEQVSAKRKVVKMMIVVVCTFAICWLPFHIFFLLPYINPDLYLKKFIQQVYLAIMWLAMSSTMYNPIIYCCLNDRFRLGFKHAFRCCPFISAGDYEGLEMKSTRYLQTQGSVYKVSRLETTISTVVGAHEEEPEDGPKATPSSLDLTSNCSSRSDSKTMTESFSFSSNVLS

One may read the EC50 as the concentration giving half of the maximal effect. As for `CCCC[C@H](NC(=O)[C@H](CC(C)C)N(C)C(=O)CNC(=O)[C@@H](NC(=O)[C@H](Cc1ccccc1)NC(=O)[C@H](CCCCN)NC(=O)[C@@H](N)CC(=O)O)C(C)C)C(N)=O` [compound 375, Asp;Lys;Phe;Val;Gly;NmLeu;Nle;NH2], at hNK1R, the response was half-maximal at 12 nM (EC50) and the “hNK1R, IP3 Efficacy” value was 110%. For the same compound, at hNK2R, the EC50 is 0.5 nM and the “hNK2R, IP3 Efficacy” value amounted to 100%. At hNK3R, the EC50 is around 50000 nM and the “hNK3, IP3 Efficacy” value was determined as 35%.

In the case of `COCC[C@H](NC(=O)[C@H](CC(C)C)N(C)C(=O)CNC(=O)[C@@H](NC(=O)[C@H](Cc1ccc(O)cc1)NC(=O)[C@H](CCCCN)NC(=O)[C@H](CCC(=O)O)NC(=O)COCCOCCNC(=O)COCCOCCNC(=O)CC[C@H](NC(=O)CCCCCCCCCCCCCCCCC(=O)O)C(=O)O)C(C)C)C(N)=O` [compound 382, *Glu;Lys;Tyr;Val;Gly;NmLeu;Metox;NH2] ({C18 diacid-γGlu-AEEA-AEEA}-EKYVG[NMeL][hSer](Me)-NH2), on hNK1R, the EC50 is around 3800 nM and the “hNK1R, IP3 Efficacy” value worked out at 30%. In addition, on hNK2R, a half-maximal effect (EC50) was put at 3.7 nM and the “hNK2R, IP3 Efficacy” value was determined as 95%. For the same compound, the “hNK3, IP3 Efficacy” value at hNK3R is listed as 20%.

Turning to `CCCC[C@H](NC(=O)[C@H](CC(C)C)N(C)C(=O)CNC(=O)[C@@H](NC(=O)[C@H](Cc1ccccc1)NC(=O)[C@H](CCCCN)NC(=O)[C@H](CC(=O)O)NC(=O)COCCOCCNC(=O)COCCOCCNC(=O)CC[C@H](NC(=O)CCCCCCCCCCCCCCCCC(=O)O)C(=O)O)[C@@H](C)O)C(N)=O` [compound 387, *Asp;Lys;Phe;Thr;Gly;NmLeu;Nle;NH2] ({C18 diacid-γGlu-AEEA-AEEA}-DKFTG[NMeL][Nle]-NH2), on hNK1R, the EC50 worked out at 5.5 nM and the “hNK1R, IP3 Efficacy” value amounted to 100%. Moreover, at hNK2R, the EC50 is 3.3 nM and the “hNK2R, IP3 Efficacy” value came to 100%. Further, on hNK3R, the EC50 came to 34 nM and the “hNK3, IP3 Efficacy” value turned out to be 100%.

In the case of `CCCC[C@H](NC(=O)[C@H](CC(C)C)N(C)C(=O)CNC(=O)[C@@H](NC(=O)[C@H](Cc1ccc(I)cc1)NC(=O)[C@H](CCCCN)NC(=O)[C@H](CC(=O)O)NC(=O)COCCOCCNC(=O)COCCOCCNC(=O)CC[C@H](NC(=O)CCCCCCCCCCCCCCCCC(=O)O)C(=O)O)C(C)C)C(N)=O` [compound 330, *Asp;Lys;4-I-Phe;Val;Gly;NmLeu;Nle;NH2], on hNK1R, the EC50 is around 170 nM and the “hNK1R, IP3 Efficacy” value is recorded as 40%. Moreover, at hNK2R, the “hNK2R receptor activation, in words” value was “completely destroys NK2R activation” and the “hNK2R, IP3 Efficacy” value turned out to be 0%. On hNK3R, the “hNK3, IP3 Efficacy” value amounted to 0%.

In the case of “*Asp;Lys;Val;Tyr;Gly;NmLeu;Nle;NH2 ({Conj‑Neu‑C18DA}-DKVYG[NMeL][Nle]-NH2; reading uncertain; also: printed as *Asp;Lys;Val;Tyr;Gly;NmLeu;Nle;NH2) [compound 363, * is Conj-Neu-C18DA protractor on N-terminal α-amino group]”, in the test with hNK1R, the “hNK1R receptor activation, in words” value is “complete loss of receptor activation on NK1-3Rs” and the “hNK1R, IP3 Efficacy” value is recorded as 0%. In addition, in the test with hNK2R, the “hNK2R receptor activation, in words” value is reported as “complete loss of receptor activation on NK1-3Rs” and the “hNK2R, IP3 Efficacy” value is recorded as 0%. Further, in the test with hNK3R, the “hNK3R receptor activation, in words” value is reported as “complete loss of receptor activation on NK1-3Rs” and the “hNK3, IP3 Efficacy” value came to 0%.

In the case of `CSCC[C@H](NC(=O)[C@H](CC(C)C)N(C)C(=O)CNC(=O)[C@@H](NC(=O)[C@H](Cc1ccccc1)NC(=O)[C@H](CCCCNC(=O)COCCOCCNC(=O)COCCOCCNC(=O)CC[C@H](NC(=O)CCCCCCCCCCCCCCCCC(=O)O)C(=O)O)NC(=O)[C@H](CC(=O)O)NC(C)=O)C(C)C)C(N)=O` [compound 301, **Asp;Lys*;Phe;Val;Gly;NmLeu;Met;NH2], on hNK1R, the EC50 was around 1500 nM and the “hNK1R, IP3 Efficacy” value came to 64%. Moreover, at hNK2R, it took 38 nM to reach a half-maximal effect (EC50) and the “hNK2R, IP3 Efficacy” value was found to be 63%. Besides, at hNK3R, the EC50 worked out at 160 nM and the “hNK3, IP3 Efficacy” value came to 85%.

For the compound `COc1ccc(C[C@H](NC(=O)[C@H](CC(C)C)N(C)C(=O)CNC(=O)[C@@H](NC(=O)[C@H](Cc2ccccc2)NC(=O)[C@H](CCCCN)NC(=O)[C@H](CC(=O)O)NC(=O)COCCOCCNC(=O)COCCOCCNC(=O)CC[C@H](NC(=O)CCCCCCCCCCCCCCCCC(=O)O)C(=O)O)C(C)C)C(N)=O)cc1` [compound 370, *Asp;Lys;Phe;Val;Gly;NmLeu;4-MeOPhe;NH2] ({C18 diacid-γGlu-AEEA-AEEA}-DKFVG[NMeL]Y(Me)-NH2), on hNK1R, the “hNK1R, IP3 Efficacy” value is recorded as 20%. For the same compound, on hNK2R, the EC50 turned out to be 10 nM and the “hNK2R, IP3 Efficacy” value stood at 90%. At hNK3R, the “hNK3, IP3 Efficacy” value worked out at 0%.

In the case of `CCCC[C@H](NC(=O)[C@H](CC(C)C)N(C)C(=O)CNC(=O)[C@@H](NC(=O)[C@H](Cc1ccccc1)NC(=O)[C@H](CCCNC(=N)N)NC(=O)[C@H](CC(=O)O)NC(=O)COCCOCCNC(=O)COCCOCCNC(=O)CC[C@H](NC(=O)CCCCCCCCCCCCCCCCC(=O)O)C(=O)O)C(C)C)C(N)=O` [compound 306, *Asp;Arg;Phe;Val;Gly;NmLeu;Nle;NH2] ({C18 diacid-γGlu-AEEA-AEEA}-DRFVG[NMeL][Nle]-NH2), at hNK1R, the EC50 worked out at 19 nM and the “hNK1R, IP3 Efficacy” value was determined as 80%. Further, on hNK2R, the EC50 turned out to be 2 nM and the “hNK2R, IP3 Efficacy” value is listed as 90%. Moreover, on hNK3R, the EC50 stood at 36 nM and the “hNK3, IP3 Efficacy” value is 65%.

As for `CCCC[C@H](NC(=O)[C@H](CC(C)C)N(C)C(=O)CNC(=O)[C@@H](NC(=O)[C@H](Cc1ccc(O)cc1)NC(=O)[C@H](CCCCN)NC(=O)[C@H](CC(=O)O)NC(=O)COCCOCCNC(=O)COCCOCCNC(=O)CC[C@H](NC(=O)CCCCCCCCCCCCCCCCCCC(=O)O)C(=O)O)C(C)C)C(N)=O` [compound 380, *Asp;Lys;Tyr;Val;Gly;NmLeu;Nle;NH2] ({C20 diacid-γGlu-AEEA-AEEA}-DKYVG[NMeL][Nle]-NH2), on hNK1R, the EC50 was found to be 58 nM and the “hNK1R, IP3 Efficacy” value came to 20%. At hNK2R, the response was half-maximal at 1.5 nM (EC50) and the “hNK2R, IP3 Efficacy” value came to 90%. Moreover, on hNK3R, the 50% effective concentration (EC50) is around 160 nM and the “hNK3, IP3 Efficacy” value is on record as 30%.

For `CSCC[C@H](NC(=O)[C@H](CC(C)C)N(C)C(=O)CNC(=O)[C@@H](NC(=O)[C@H](Cc1ccccc1)NC(=O)[C@H](CCCCNC(=O)COCCOCCNC(=O)COCCOCCNC(=O)CC[C@H](NC(=O)CCCCCCCCCCCCCCCCC(=O)O)C(=O)O)NC(=O)[C@H](CC(=O)O)NC(=O)COCCOCCNC(=O)COCCOCCNC(=O)CC[C@H](NC(=O)CCCCCCCCCCCCCCCCC(=O)O)C(=O)O)C(C)C)C(N)=O` [compound 302, *Asp;Lys*;Phe;Val;Gly;NmLeu;Met;NH2], the “hNK2R receptor activation, in words” value on hNK2R is listed as “inactivates the NKA(4-10) analogue”.
